Source: ChEMBL document CHEMBL5303573, “Mapping human microbiome drug metabolism by gut bacteria and their genes” (Nature, 2019)

What was measured:
[1] = victivallis vadensis, 12 h, 2 µM
Description: The drug is tested on Victivallis vadensis strain: ATCC BAA-548 for biotransformation. The drug concentrations were measured before and after a 12-h incubation by liquid-chromatography-coupled mass spectrometry (LC–MS)

[2] = The drug is tested on Providencia rettgeri strain: DSM1131 for biotransformation. The drug concentrations were measured before and after a 12-h incubation by liquid-chromatography-coupled mass spectrometry (LC–MS); format: ADME; set-up: dose 2 uM, timepoint 0 vs 12 hours; details: 2 µM
[3] = The drug is tested on Bacteroides coprophilus strain: DSM18228 for biotransformation. The drug concentrations were measured before and after a 12-h incubation by liquid-chromatography-coupled mass spectrometry (LC–MS); details: 2 µM
[4] = The drug is tested on Clostridium scindens strain: ATCC35704 for biotransformation. The drug concentrations were measured before and after a 12-h incubation by liquid-chromatography-coupled mass spectrometry (LC–MS); details: 2 µM
[5] = The drug is tested on Bacteroides caccae strain: ATCC43185 for biotransformation. The drug concentrations were measured before and after a 12-h incubation by liquid-chromatography-coupled mass spectrometry (LC–MS); details: 2 µM
[6] = bacteroides intestinalis, 12 h, 2 µM
Description: The drug is tested on Bacteroides intestinalis strain: DSM17393 for biotransformation. The drug concentrations were measured before and after a 12-h incubation by liquid-chromatography-coupled mass spectrometry (LC–MS)

[7] = limosilactobacillus reuteri cf48-3a, 12 h, 2 µM
Description: The drug is tested on Lactobacillus reuteri CF48-3A strain: BEI HM-102 for biotransformation. The drug concentrations were measured before and after a 12-h incubation by liquid-chromatography-coupled mass spectrometry (LC–MS)

[8] = The drug is tested on Collinsella intestinalis strain: DSM13280 for biotransformation. The drug concentrations were measured before and after a 12-h incubation by liquid-chromatography-coupled mass spectrometry (LC–MS); details: 2 µM
[9] = The drug is tested on Parabacteroides merdae strain: ATCC43184 for biotransformation. The drug concentrations were measured before and after a 12-h incubation by liquid-chromatography-coupled mass spectrometry (LC–MS); details: 2 µM
[10] = bacteroides thetaiotaomicron, 12 h, 2 µM
Description: The drug is tested on Bacteroides thetaiotaomicron strain: 3731 for biotransformation. The drug concentrations were measured before and after a 12-h incubation by liquid-chromatography-coupled mass spectrometry (LC–MS)

[11] = The drug is tested on Clostridium ramosum strain: DSM1402 for biotransformation. The drug concentrations were measured before and after a 12-h incubation by liquid-chromatography-coupled mass spectrometry (LC–MS); details: thomasclavelia ramosa, 2 µM
[12] = The drug is tested on Enterococcus faecalis strain: V583 for biotransformation. The drug concentrations were measured before and after a 12-h incubation by liquid-chromatography-coupled mass spectrometry (LC–MS); details: 2 µM
[13] = The drug is tested on Bacteroides fragilis strain: ATCC43859 for biotransformation. The drug concentrations were measured before and after a 12-h incubation by liquid-chromatography-coupled mass spectrometry (LC–MS); details: 2 µM
[14] = parabacteroides johnsonii, 12 h, 2 µM
Description: The drug is tested on Parabacteroides johnsonii strain: DSM18315 for biotransformation. The drug concentrations were measured before and after a 12-h incubation by liquid-chromatography-coupled mass spectrometry (LC–MS)

[15] = bacteroides thetaiotaomicron, 12 h, 2 µM; remark: listed apart in the source
Description: The drug is tested on Bacteroides thetaiotaomicron strain: VPI-5482 for biotransformation. The drug concentrations were measured before and after a 12-h incubation by liquid-chromatography-coupled mass spectrometry (LC–MS)

[16] = bifidobacterium adolescentis, 12 h, 2 µM
Description: The drug is tested on Bifidobacterium adolescentis strain: ATCC 15703 for biotransformation. The drug concentrations were measured before and after a 12-h incubation by liquid-chromatography-coupled mass spectrometry (LC–MS)

[17] = The drug is tested on Blautia luti strain: DSM14534 for biotransformation. The drug concentrations were measured before and after a 12-h incubation by liquid-chromatography-coupled mass spectrometry (LC–MS); format: ADME; set-up: dose 2 uM, timepoint 0 vs 12 hours; details: 2 µM
[18] = bacteroides eggerthii, 12 h, 2 µM
Description: The drug is tested on Bacteroides eggerthii strain: DSM20697 for biotransformation. The drug concentrations were measured before and after a 12-h incubation by liquid-chromatography-coupled mass spectrometry (LC–MS)

[19] = The drug is tested on Bacteroides xylanisolvens strain: DSM18836 for biotransformation. The drug concentrations were measured before and after a 12-h incubation by liquid-chromatography-coupled mass spectrometry (LC–MS); details: 2 µM

| Bacterial Biotransformation [1] | Bacterial Biotransformation [2] | Bacterial Biotransformation [3] | Bacterial Biotransformation [4] | Bacterial Biotransformation [5] | Bacterial Biotransformation [6] | Bacterial Biotransformation [7] | Bacterial Biotransformation [8] | Bacterial Biotransformation [9] | Bacterial Biotransformation [10] | Bacterial Biotransformation [11] | Bacterial Biotransformation [12] | Bacterial Biotransformation [13] | Bacterial Biotransformation [14] | Bacterial Biotransformation [15] | Bacterial Biotransformation [16] | Bacterial Biotransformation [17] | Bacterial Biotransformation [18] | Bacterial Biotransformation [19] | Compound |
| --- | --- | --- | --- | --- | --- | --- | --- | --- | --- | --- | --- | --- | --- | --- | --- | --- | --- | --- | --- |
| Compound NOT metabolized | Compound NOT metabolized | Compound NOT metabolized | Compound NOT metabolized | Compound NOT metabolized | Compound NOT metabolized | Compound NOT metabolized | Compound NOT metabolized | Compound NOT metabolized | Compound NOT metabolized | Compound NOT metabolized | Compound metabolized | Compound metabolized | Compound NOT metabolized | Compound NOT metabolized | Compound NOT metabolized | Compound NOT metabolized |  |  | CC#C[C@]1(O)CC[C@H]2[C@@H]3CCC4=CC(=O)CCC4=C3[C@@H](c3ccc(N(C)C)cc3)C[C@@]21C [MIFEPRISTONE] |
| Compound metabolized | Compound metabolized | Compound metabolized | Compound metabolized | Compound metabolized | Compound metabolized | Compound NOT metabolized | Compound metabolized | Compound metabolized | Compound metabolized | Compound metabolized | Compound metabolized | Compound metabolized | Compound metabolized | Compound metabolized | Compound metabolized | Compound metabolized | Compound metabolized | Compound metabolized | CC(=O)OCC(=O)NCCCOc1cccc(CN2CCCCC2)c1 [ROXATIDINE ACETATE] |
| Compound NOT metabolized | Compound metabolized | Compound NOT metabolized | Compound metabolized | Compound NOT metabolized | Compound metabolized | Compound NOT metabolized | Compound NOT metabolized | Compound metabolized | Compound NOT metabolized | Compound NOT metabolized | Compound metabolized | Compound NOT metabolized | Compound metabolized | Compound NOT metabolized | Compound metabolized | Compound NOT metabolized | Compound NOT metabolized | Compound NOT metabolized | CC[C@H](C)C(=O)O[C@H]1C[C@@H](C)C=C2C=C[C@H](C)[C@H](CC[C@@H]3C[C@@H](O)CC(=O)O3)[C@H]21 [LOVASTATIN] |
| Compound NOT metabolized |  | Compound NOT metabolized | Compound metabolized | Compound NOT metabolized | Compound NOT metabolized | Compound metabolized | Compound NOT metabolized | Compound NOT metabolized | Compound NOT metabolized | Compound metabolized | Compound NOT metabolized | Compound NOT metabolized | Compound metabolized | Compound NOT metabolized | Compound NOT metabolized | Compound NOT metabolized | Compound metabolized | Compound metabolized | CN1CCN(CC/C=C2/c3ccccc3Sc3ccc(S(=O)(=O)N(C)C)cc32)CC1 [THIOTHIXENE] |
